The values that follow come from PubChem BioAssay (NCI).

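The compound was tested at five concentrations on cells cultured in 96-well plates, with a 48-hour exposure period. The concentration for full growth arrest is given as TGI.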

Some test systems named below: ACHN renal; M14 melanoma; MCF7 breast; MDA-MB-231 breast; OVCAR-3 ovarian; OVCAR-5 ovarian; PC-3 prostate; RPMI-8226 leukemia; SK-MEL-28 melanoma; SNB-19 CNS; SW-620 colon; U251 CNS.
What all share (assay): NCI anticancer screen, dose series, 48 h

Take `N/N=C(\C(=O)Nc1ccc([N+](=O)[O-])cc1)C(C1=Nc2cc([N+](=O)[O-])ccc2NC1)[N+](=O)[O-]` (centres undefined): the TGI with ACHN renal, in the assay with M14 melanoma, in the assay on MCF7 breast, in the assay with MDA-MB-231 breast, in the assay on OVCAR-3 ovarian and with OVCAR-5 ovarian was > 100 µM throughout. In addition, the TGI in the assay with PC-3 prostate, with RPMI-8226 leukemia, with SK-MEL-28 melanoma, with SNB-19 CNS, in the assay on SW-620 colon and in the assay on U251 CNS was > 100 µM each time.

Turning to `CC1(C)O[C@@H]2[C@@H]3OC(=O)C[C@@H]3[C@@H](COCc3ccccc3)[C@@H]2O1`, the TGI in the assay with ACHN renal, in the assay on M14 melanoma, with MCF7 breast, in the assay with MDA-MB-231 breast, in the assay on OVCAR-3 ovarian and in the assay with OVCAR-5 ovarian was > 100 µM each time. The TGI in the assay with PC-3 prostate, with RPMI-8226 leukemia, in the assay with SK-MEL-28 melanoma, with SNB-19 CNS, with SW-620 colon and with U251 CNS was > 100 µM throughout.

In the case of `CCCCCC(/C=N/N)C(O)(C(F)(F)F)C(F)(F)F` (centres undefined), the TGI in the assay with ACHN renal, in the assay on M14 melanoma, with MCF7 breast, in the assay with MDA-MB-231 breast, with OVCAR-3 ovarian and with OVCAR-5 ovarian was > 10 µM each time. Also, the TGI in the assay on PC-3 prostate is 6.82 µM; in the assay on RPMI-8226 leukemia, > 10 µM; in the assay with SK-MEL-28 melanoma, 7.43 µM; with SNB-19 CNS it was > 10 µM; with SW-620 colon, > 10 µM; in the assay on U251 CNS it was > 10 µM.

Regarding `O=C(/C(=C/c1cccs1)c1ccccc1)c1ccccc1`, the TGI in the assay with ACHN renal, in the assay on M14 melanoma, in the assay with MCF7 breast, with MDA-MB-231 breast, in the assay on OVCAR-3 ovarian and with OVCAR-5 ovarian was > 100 µM in each case. In addition, the TGI in the assay with PC-3 prostate, in the assay on RPMI-8226 leukemia, in the assay with SK-MEL-28 melanoma, in the assay on SNB-19 CNS, in the assay on SW-620 colon and in the assay on U251 CNS was > 100 µM throughout.

On to `O=C(O)c1cc(Sc2ccc([N+](=O)[O-])c(C(=O)O)c2)ccc1[N+](=O)[O-]`, for which the TGI in the assay on ACHN renal, in the assay on M14 melanoma, in the assay with MCF7 breast, in the assay on MDA-MB-231 breast, in the assay with OVCAR-3 ovarian and with OVCAR-5 ovarian was > 100 µM throughout. The TGI in the assay with PC-3 prostate, in the assay with RPMI-8226 leukemia, with SK-MEL-28 melanoma, with SNB-19 CNS, in the assay with SW-620 colon and with U251 CNS was > 100 µM in each case.

With `O=C1OC(c2ccccc2)N/C1=C\c1ccc2c(c1)OCO2` (centres undefined), the TGI in the assay on ACHN renal, with M14 melanoma, in the assay with MCF7 breast, in the assay with MDA-MB-231 breast, in the assay with OVCAR-3 ovarian and in the assay with OVCAR-5 ovarian was > 100 µM each time. Moreover, the TGI with PC-3 prostate is > 100 µM; in the assay with RPMI-8226 leukemia, 59.9 µM; in the assay on SK-MEL-28 melanoma, > 100 µM; in the assay with SNB-19 CNS it was > 100 µM; with SW-620 colon, > 100 µM; with U251 CNS, > 100 µM.

Consider `CC[C@]12C=CCN3CCC4(c5cc([C@@]6(C(=O)OC)CC7CN(CCc8c6[nH]c6ccccc86)C[C@@H]6CCC[C@H]76)c(OC)cc5N(C)C4[C@](O)(C(=O)OC)C1OC(C)=O)C32` (some centres undefined), for which the TGI in the assay with ACHN renal is > 8.37 µM; in the assay on M14 melanoma, > 3.45 µM; in the assay with MCF7 breast it was > 10 µM; with MDA-MB-231 breast it was 0.536 µM; in the assay on OVCAR-3 ovarian, 0.337 µM; in the assay with OVCAR-5 ovarian it was > 10 µM. Besides, the TGI in the assay with PC-3 prostate was > 10 µM; in the assay with RPMI-8226 leukemia, > 7.96 µM; in the assay with SK-MEL-28 melanoma it was > 10 µM; in the assay with SNB-19 CNS, > 10 µM; in the assay with SW-620 colon, > 4.07 µM; in the assay with U251 CNS, > 5.19 µM.

Regarding `O=C(N/C(=C\c1ccccc1)C1Nc2ccccc2C(=O)O1)c1ccccc1` (centres undefined), the TGI is > 100 µM with ACHN renal; 52.1 µM with M14 melanoma; > 100 µM in the assay with MCF7 breast; > 100 µM with MDA-MB-231 breast; 96.7 µM in the assay on OVCAR-3 ovarian; > 100 µM with OVCAR-5 ovarian. For the same compound, the TGI in the assay with PC-3 prostate is > 100 µM; with RPMI-8226 leukemia, 63.2 µM; with SK-MEL-28 melanoma, 53.2 µM; in the assay on SNB-19 CNS it was > 100 µM; in the assay on SW-620 colon, 59.6 µM; in the assay on U251 CNS, 51.2 µM.

As for `CC1(C)C2CCC1(CC(=O)O)C(Cl)C2` (centres undefined), the TGI in the assay on ACHN renal, in the assay on M14 melanoma, in the assay on MCF7 breast, with MDA-MB-231 breast, in the assay with OVCAR-3 ovarian and with OVCAR-5 ovarian was > 100 µM each time. Besides, the TGI in the assay on PC-3 prostate, in the assay on RPMI-8226 leukemia, in the assay with SK-MEL-28 melanoma, in the assay on SNB-19 CNS, in the assay on SW-620 colon and with U251 CNS was > 100 µM in each case.

`CC(NC(=O)C(N)CC(=O)O)NC(=O)N1CCCC1` (centres undefined): the TGI in the assay with ACHN renal, in the assay on M14 melanoma, in the assay with MCF7 breast, in the assay on MDA-MB-231 breast, in the assay on OVCAR-3 ovarian and with OVCAR-5 ovarian was > 100 µM in each case. For the same compound, the TGI with PC-3 prostate, in the assay on RPMI-8226 leukemia, with SK-MEL-28 melanoma, with SNB-19 CNS, in the assay with SW-620 colon and with U251 CNS was > 100 µM in each case.

As for `OCSc1nn(CO)c(=S)s1`, the TGI in the assay with ACHN renal is 68.1 µM; in the assay on M14 melanoma, 38.2 µM; in the assay with MCF7 breast it was 35.9 µM; with MDA-MB-231 breast, 68.1 µM; in the assay with OVCAR-3 ovarian it was 48.4 µM; in the assay on OVCAR-5 ovarian, > 100 µM. Also, the TGI is 59.6 µM in the assay with PC-3 prostate; 70.6 µM in the assay with RPMI-8226 leukemia; 49.9 µM in the assay with SK-MEL-28 melanoma; 59.6 µM in the assay with SNB-19 CNS; > 100 µM in the assay with SW-620 colon; 56.8 µM in the assay on U251 CNS.

Turning to `CCCCCCCC/C=C/CCCCCCCC1CC(O)C(=O)O1` (centres undefined), the TGI in the assay with ACHN renal is > 100 µM; in the assay on M14 melanoma, > 100 µM; in the assay on MCF7 breast, > 100 µM; with MDA-MB-231 breast, > 100 µM; in the assay with OVCAR-3 ovarian, 95.7 µM; in the assay with OVCAR-5 ovarian it was > 100 µM. Further, the TGI in the assay with PC-3 prostate is > 100 µM; in the assay with RPMI-8226 leukemia, 76.7 µM; in the assay with SK-MEL-28 melanoma, > 100 µM; in the assay on SNB-19 CNS, > 100 µM; with SW-620 colon it was > 100 µM; in the assay with U251 CNS, > 100 µM.
